According to article PMC10962542, “Inhibition of Aurora‐A/N‐Myc Protein–Protein Interaction Using Peptidomimetics: Understanding the Role of Peptide Cyclization” (Chembiochem, 2023):
*1 amine or outer side, *2 acyl side, *3 side chain or, on linkers, in order; H or OH if unused. Where a SMILES comes first, the peptide text is derived from it. Bridges are numbered along the chain shown (N, C = ends). Maleimide(3,4-diyl) = O=C1NC(=O)C([*:2])=C1[*:1]

Columns and labels:
[1] = target: T1, N‐Myc/Aurora‐A interaction (Aurora‐A122‐403‐C290A/C393A) (Homo sapiens, UniProt O14965, C290A/C393A); assay: competition fluorescence anisotropy (FA) assay against fluorescein labelled N‐Myc61‐89; type: binding; settings: SD; further: equilibrated 2 h at room temperature
T1 construct: Aurora‐A 122‐403‐C290A/C393A protein was produced as described previously; made in house
T1 sequence (O14965 122-403 C290A/C393A): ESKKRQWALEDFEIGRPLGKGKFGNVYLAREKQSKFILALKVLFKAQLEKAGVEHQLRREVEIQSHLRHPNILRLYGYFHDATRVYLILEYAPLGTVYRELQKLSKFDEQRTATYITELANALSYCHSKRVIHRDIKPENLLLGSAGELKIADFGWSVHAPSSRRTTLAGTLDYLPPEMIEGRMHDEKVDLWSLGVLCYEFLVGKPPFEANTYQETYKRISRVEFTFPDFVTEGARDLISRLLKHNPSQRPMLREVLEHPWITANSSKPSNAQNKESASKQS
Method: Fluorescence anisotropy (FA) assays: All assays were performed using 384‐well plates (Greiner Bio‐one, UK). […] All samples were prepared in 25 mM Tris, 150 mM NaCl, 5 mM MgCl2, pH 7.5, and tested in triplicate using an EnVisionTM 2103 MultiLabel plate reader (Perkin Elmer; Waltham, MA, USA). The parameters were set as follows: Excitation wavelength=480 nm (30 nm bandwidth) and emission wavelength=535 nm (30 nm bandwidth). Measured data were processed and analysed as previously described.[31] Specifically, the perpendicular intensity (P) and parallel intensity (S) were subtracted by the control values and used for calculations of intensity and anisotropy using the following Equations 1, 2, 3, 4, and 5: (1) I=2PG+S (2) r=S-PG (3) Lb=r-rmin/λrmax-r+r-rmin (4) [drawing 1] (5) y=rmax+rmin-rmax/1+(x/x0)^p
For competition FA assays, the average anisotropy and the average standard deviation of the values derived from equation (2) were calculated and fit to a sigmoidal logistic model (equation (5)) using Origin 2021. […] Results are reported as IC50±SD, with data points representing the mean of three replicates and error bars indicating the corresponding SD. Where applicable, ΔΔG was determined as follows: ΔΔG=−RT ln (ΔIC50).

[2] = circular dichroism (CD) spectroscopy; type: physicochemical; settings: 150 mM NaCl, 5 mM MgCl2, pH 7.5, 5 °C, n=2, free‐thiol (red) samples with 5 mol equivalents TCEP
Method: Circular dichroism (CD): All samples were prepared in Tris buffer (25 mM Tris, 150 mM NaCl, 5 mM MgCl2, pH 7.5) with the exception of free sulfhydryl peptides, to which Tris(2‐carboxyethyl)phosphine (TCEP; 5 mol eq. relative to the peptide) was added. CD spectra were recorded using an APP Chirascan CD spectropolarimeter and 1 mm pathlength quartz cuvettes. Sample concentrations were typically 30–120 μM, as determined by UV−V absorption based on a tryptophan extinction coefficient of 5600 M^−1 cm^−1 and, for mal‐constrained variants, a maleimide coefficient of 1700 M^−1 cm^−1.[16, 32] […] Spectra were recorded in duplicate at 5 °C, over wavelengths ranging from 290 to 180 nm, with data collected every 1 nm (1 nm s^−1). A background spectrum for CD buffer alone was also recorded and background ellipticity values were subtracted from raw sample ellipticity values (θ) when calculating mean residue ellipticities (MREs) using Equation 6: (6) MRE=(θλ-θ0)xMw/nxlxc
Where [θ]λ is the observed ellipticity at a given wavelength λ in mdeg, [θ]0 is the ellipticity observed for the buffer, Mw =molar weight of the peptide in g mol^−1, n=number of residues; c=sample concentration (mg mL^−1); l=pathlength of the cuvette in mm. Estimates of peptide % helicity were made using Equation 7, [33] (7) %helicity=(MRE222-MREcoil)x100/-425001-3/n
where MRE222 is the MRE value at 222 nm, MREcoil=640‐45T (with T in °C)=415 deg cm^2 dmol^−1 res^−1 at 5 °C, and n is the number of backbone amide bonds including the N‐terminal acetyl.

SMILES | IC50 [1] [µM] | MRE222 (mean residue ellipticity at 222 nm) ([2]; 25 mM Tris, mean ± SD, SD) [deg cm^−1 dmol^−1 res^−1] | % Helicity (estimated) ([2]; from MRE222 by equation 7, 25 mM Tris) [%]
CSCC[C@H](NC(=O)[C@@H]1CSC2=C(SC[C@H](NC(=O)[C@@H]3CCCN3C(=O)[C@@H]3CCCN3C(=O)[C@H](CCC(=O)O)NC(=O)[C@H](CO)NC(=O)[C@H](CO)NC(=O)[C@H](Cc3c[nH]cn3)NC(=O)[C@H](CCC(=O)O)NC(=O)[C@H](C)NC(=O)[C@H](Cc3ccccc3)NC(=O)CNC(=O)[C@H](CCCNC(=N)N)NC(=O)[C@H](CO)NC(=O)[C@@H]3CCCN3C(=O)[C@H](CO)NC(=O)[C@H](CC(C)C)NC(C)=O)C(=O)N[C@@H](Cc3c[nH]c4ccccc34)C(=O)N[C@@H](C(C)C)C(=O)N[C@@H]([C@@H](C)O)C(=O)N1)C(=O)NC2=O)C(=O)N[C@@H](CC(C)C)C(=O)N[C@@H](CC(C)C)C(=O)N[C@@H](CCC(=O)O)C(=O)N[C@@H](CC(N)=O)C(=O)N[C@@H](CCC(=O)O)C(=O)N[C@@H](CC(C)C)C(=O)N[C@@H](Cc1c[nH]c2ccccc12)C(=O)NCC(N)=O [N-Myc 61-89 S76C/E80 mal] (Ac-LSPSRGFAEHSSEPPCWVTCMLLENELWG-NH2; linker 16-20 via Maleimide(3,4-diyl)) | 147 ± 13 | – | –
CSCC[C@H](NC(=O)[C@H](CCC(=O)O)NC(=O)[C@@H](NC(=O)[C@H](CS)NC(=O)[C@H](Cc1c[nH]c2ccccc12)NC(=O)[C@H](CO)NC(=O)[C@@H]1CCCN1C(=O)[C@@H]1CCCN1C(=O)[C@H](CCC(=O)O)NC(=O)[C@H](CO)NC(=O)[C@H](CO)NC(=O)[C@H](Cc1c[nH]cn1)NC(=O)[C@H](CCC(=O)O)NC(=O)[C@H](C)NC(=O)[C@H](Cc1ccccc1)NC(=O)CNC(=O)[C@H](CCCNC(=N)N)NC(=O)[C@H](CO)NC(=O)[C@@H]1CCCN1C(=O)[C@H](CO)NC(=O)[C@H](CC(C)C)NC(C)=O)[C@@H](C)O)C(=O)N[C@@H](CS)C(=O)N[C@@H](CC(C)C)C(=O)N[C@@H](CCC(=O)O)C(=O)N[C@@H](CC(N)=O)C(=O)N[C@@H](CCC(=O)O)C(=O)N[C@@H](CC(C)C)C(=O)N[C@@H](Cc1c[nH]c2ccccc12)C(=O)NCC(N)=O [N-Myc 61-89 V78C/L82C red] (Ac-LSPSRGFAEHSSEPPSWCTEMCLENELWG-NH2) | – | -1692 ± 70 | 6 ± 1
CSCC[C@H](NC(=O)[C@H](CCC(=O)O)NC(=O)[C@@H](NC(=O)[C@@H](NC(=O)[C@H](Cc1c[nH]c2ccccc12)NC(=O)[C@H](CO)NC(=O)[C@@H]1CCCN1C(=O)[C@@H]1CCCN1C(=O)[C@H](CCC(=O)O)NC(=O)[C@H](CO)NC(=O)[C@H](CO)NC(=O)[C@H](Cc1c[nH]cn1)NC(=O)[C@H](CCC(=O)O)NC(=O)[C@H](C)NC(=O)[C@H](Cc1ccccc1)NC(=O)CNC(=O)[C@H](CCCNC(=N)N)NC(=O)[C@H](CO)NC(=O)[C@@H]1CCCN1C(=O)[C@H](CO)NC(=O)[C@H](CC(C)C)NC(C)=O)C(C)C)[C@@H](C)O)C(=O)N[C@@H](CC(C)C)C(=O)N[C@H]1CSC2=C(SC[C@@H](C(=O)N[C@@H](Cc3c[nH]c4ccccc34)C(=O)NCC(N)=O)NC(=O)[C@H](CCC(=O)O)NC(=O)[C@H](CC(N)=O)NC(=O)[C@H](CCC(=O)O)NC1=O)C(=O)NC2=O [N-Myc 61-89L83C/L87C mal] (Ac-LSPSRGFAEHSSEPPSWVTEMLCENECWG-NH2; linker 23-27 via Maleimide(3,4-diyl)) | 129 ± 3 | – | –
CSCC[C@H](NC(=O)[C@H](CCC(=O)O)NC(=O)[C@@H](NC(=O)[C@@H](NC(=O)[C@H](Cc1c[nH]c2ccccc12)NC(=O)[C@H](CO)NC(=O)[C@@H]1CCCN1C(=O)[C@@H]1CCCN1C(=O)[C@H](CCC(=O)O)NC(=O)[C@H](CO)NC(=O)[C@H](CO)NC(=O)[C@H](Cc1c[nH]cn1)NC(=O)[C@H](CCC(=O)O)NC(=O)[C@H](C)NC(=O)[C@H](Cc1ccccc1)NC(=O)CNC(=O)[C@H](CCCNC(=N)N)NC(=O)[C@H](CO)NC(=O)[C@@H]1CCCN1C(=O)[C@H](CO)NC(=O)[C@H](CC(C)C)NC(C)=O)C(C)C)[C@@H](C)O)C(=O)N[C@H]1CSC2=C(SC[C@@H](C(=O)N[C@@H](CC(C)C)C(=O)N[C@@H](Cc3c[nH]c4ccccc34)C(=O)NCC(N)=O)NC(=O)[C@H](CC(N)=O)NC(=O)[C@H](CCC(=O)O)NC(=O)[C@H](CC(C)C)NC1=O)C(=O)NC2=O [N-Myc 61-89 L82C/E86C mal] (Ac-LSPSRGFAEHSSEPPSWVTEMCLENCLWG-NH2; linker 22-26 via Maleimide(3,4-diyl)) | 69 ± 18 | – | –
CSCC[C@@H]1NC(=O)[C@@H](NC(=O)[C@@H](NC(=O)[C@@H](NC(=O)[C@H](Cc2c[nH]c3ccccc23)NC(=O)[C@H](CO)NC(=O)[C@@H]2CCCN2C(=O)[C@@H]2CCCN2C(=O)[C@H](CCC(=O)O)NC(=O)[C@H](CO)NC(=O)[C@H](CO)NC(=O)[C@H](Cc2c[nH]cn2)NC(=O)[C@H](CCC(=O)O)NC(=O)[C@H](C)NC(=O)[C@H](Cc2ccccc2)NC(=O)CNC(=O)[C@H](CCCNC(=N)N)NC(=O)[C@H](CO)NC(=O)[C@@H]2CCCN2C(=O)[C@H](CO)NC(=O)[C@H](CC(C)C)NC(C)=O)C(C)C)[C@@H](C)O)CSC2=C(SC[C@@H](C(=O)N[C@@H](CC(N)=O)C(=O)N[C@@H](CCC(=O)O)C(=O)N[C@@H](CC(C)C)C(=O)N[C@@H](Cc3c[nH]c4ccccc34)C(=O)NCC(N)=O)NC(=O)[C@H](CC(C)C)NC(=O)[C@H](CC(C)C)NC1=O)C(=O)NC2=O [N-Myc 61-89 E80C/E84C mal] (Ac-LSPSRGFAEHSSEPPSWVTCMLLCNELWG-NH2; linker 20-24 via Maleimide(3,4-diyl)) | 86 ± 7 | – | –
CSCC[C@@H]1NC(=O)[C@H](CCC(=O)O)NC(=O)[C@@H](NC(=O)[C@@H](NC(=O)[C@H](Cc2c[nH]c3ccccc23)NC(=O)[C@H](CO)NC(=O)[C@@H]2CCCN2C(=O)[C@@H]2CCCN2C(=O)[C@H](CCC(=O)O)NC(=O)[C@H](CO)NC(=O)[C@H](CO)NC(=O)[C@H](Cc2c[nH]cn2)NC(=O)[C@H](CCC(=O)O)NC(=O)[C@H](C)NC(=O)[C@H](Cc2ccccc2)NC(=O)CNC(=O)[C@H](CCCNC(=N)N)NC(=O)[C@H](CO)NC(=O)[C@@H]2CCCN2C(=O)[C@H](CO)NC(=O)[C@H](CC(C)C)NC(C)=O)C(C)C)CSC2=C(SC[C@@H](C(=O)N[C@@H](CCC(=O)O)C(=O)N[C@@H](CC(N)=O)C(=O)N[C@@H](CCC(=O)O)C(=O)N[C@@H](CC(C)C)C(=O)N[C@@H](Cc3c[nH]c4ccccc34)C(=O)NCC(N)=O)NC(=O)[C@H](CC(C)C)NC1=O)C(=O)NC2=O [N-Myc 61-89 T79C/L83C mal] (Ac-LSPSRGFAEHSSEPPSWVCEMLCENELWG-NH2; linker 19-23 via Maleimide(3,4-diyl)) | 99 ± 2 | – | –
CC(=O)N[C@@H](CC(C)C)C(=O)N[C@@H](CO)C(=O)N1CCC[C@H]1C(=O)N[C@@H](CO)C(=O)N[C@@H](CCCNC(=N)N)C(=O)NCC(=O)N[C@@H](Cc1ccccc1)C(=O)N[C@@H](C)C(=O)N[C@@H](CCC(=O)O)C(=O)N[C@@H](Cc1c[nH]cn1)C(=O)N[C@@H](CO)C(=O)N[C@@H](CO)C(=O)N[C@@H](CCC(=O)O)C(=O)N1CCC[C@H]1C(=O)N1CCC[C@H]1C(=O)N[C@@H](CO)C(=O)N[C@@H](Cc1c[nH]c2ccccc12)C(=O)N[C@H](C(=O)N[C@H](C(=O)N[C@@H](CCC(=O)O)C(=O)N[C@H]1CSC2=C(SC[C@@H](C(=O)N[C@@H](CCC(=O)O)C(=O)N[C@@H](CC(C)C)C(=O)N[C@@H](Cc3c[nH]c4ccccc34)C(=O)NCC(N)=O)NC(=O)[C@H](CCC(=O)O)NC(=O)[C@H](CC(C)C)NC(=O)[C@H](CC(C)C)NC1=O)C(=O)NC2=O)[C@@H](C)O)C(C)C [N-Myc 61-89 M81C/N85C mal] (Ac-LSPSRGFAEHSSEPPSWVTECLLECELWG-NH2; linker 21-25 via Maleimide(3,4-diyl)) | 133 ± 3 | – | –
